Target: Indoleamine 2,3-dioxygenase 1 (Homo sapiens, UniProt P14902)
Assay: IDO Kynurenine Assay
Settings: 25 °C
Procedure: Human IDO1/HEK293 cells were seeded at 10,000 cells per 50 uL per well with RPMI/phenol red free media contains 10% FBS in a 384-well black wall clear bottom tissue culture plate (Matrix Technologies LLC) 125 nL of certain concentration of compound was then added to each well using ECHO liquid handling systems. The cells were incubated for 20 hours in 37° C. incubator with 5% CO2. The compound treatments were stopped by adding Trichloroacetic Acid (Sigma-Aldrich) to a final concentration at 0.2%. The cell plate was further incubated at 50° C. for 30 minute. The equal volume supernatant (20 uL) and 0.2% (w/v) Ehrlich reagent (4-dimethylaminobenzaldehyde, Sigma-Aldrich) in glacial acetic acid were mixed in a new clear bottom 384-well plate. This plate was then incubated at room temperature for 30 minute. The absorbance at 490 nm was measured on Envision plate reader.

Indoleamine 2,3-dioxygenase 1, sequence (P14902 whole entry): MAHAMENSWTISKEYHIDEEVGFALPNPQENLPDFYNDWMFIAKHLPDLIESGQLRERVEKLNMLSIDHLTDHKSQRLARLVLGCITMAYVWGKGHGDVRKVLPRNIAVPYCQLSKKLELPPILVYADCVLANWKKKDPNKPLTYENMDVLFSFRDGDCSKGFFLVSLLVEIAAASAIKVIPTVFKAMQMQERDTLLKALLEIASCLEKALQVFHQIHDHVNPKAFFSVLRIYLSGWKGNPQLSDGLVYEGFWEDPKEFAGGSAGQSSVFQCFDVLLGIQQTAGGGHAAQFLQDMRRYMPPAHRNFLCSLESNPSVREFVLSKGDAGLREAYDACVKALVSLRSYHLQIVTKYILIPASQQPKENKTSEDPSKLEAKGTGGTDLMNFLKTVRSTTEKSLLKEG

- EC50: 0.5 nM
Structure (SMILES): Cc1cc(NC(=O)Nc2cc([C@H]3C[C@H]3C(=O)O)ccc2N(CC(C)C)C2CCCCC2)on1 [US9675571, 129]

Source: BindingDB's records for patent US9675571 (Bristol-Myers Squibb, 2017)
